In the assay the target is alpha-N-acyl-glutamine-aminoacylase (Corynebacterium striatum, UniProt Q8GGD4). Put plainly: Competitive substrates of alpha-N-acyl-glutamine-aminoacylase: reduction of acid release. It counts as biochemical. To be noted: for inhibition at 50 µM: tested compound 0.05 mM; for inhibition at 50 µM / inhibition at 100 µM / inhibition at 200 µM / inhibition at 400 µM: 15 min; for inhibition at 100 µM: tested compound 0.1 mM; for inhibition at 200 µM: tested compound 0.2 mM; for inhibition at 400 µM: tested compound 0.4 mM. As for the experimental part:
In a sample, the enzyme alpha-N-acyl-glutamine-aminoacylase was used at a concentration of 36 ng/ml in Buffer A (50 mM NaCl; 50 mM NaH2PO4/K2HPO4; pH 7). To each sample, alpha-N-decanoyl-glutamine or alpha-N-(E)-3-methyl-2-hexenoyl-glutamine was added at a final concentration of 0.2 mM as a substrate.
Further, to each sample various competitive substrates are added as shown in Table 1 below at different concentrations as indicated.
The resulting samples with enzyme, substrate and competitive substrate were incubated for 15 minutes, acidified to pH 2 with HCl and extracted with methyl tert butyl ether (MTBE). […] The percentage of the reduction of the release when compared to the positive control is given in Table 1 (equals inhibition of the enzmye).

[1] abbreviates: substrate alpha-N-decanoyl-glutamine 0.2 mM, release of decanoic acid vs positive control, read-out: % Inhibition (DA).
[2] abbreviates: substrate alpha-N-(E)-3-methyl-2-hexenoyl-glutamine 0.2 mM, release of (E)-3-methyl-2-hexenoic acid vs positive control, read-out: % Inhibition (MH).

Each structure is given as a SMILES string. Read-outs that look alike come from different tables or passages of the source.

Usually inhibition stands for the drop in the measured response relative to a control, in per cent.

Chain of alpha-N-acyl-glutamine-aminoacylase (Q8GGD4 whole entry): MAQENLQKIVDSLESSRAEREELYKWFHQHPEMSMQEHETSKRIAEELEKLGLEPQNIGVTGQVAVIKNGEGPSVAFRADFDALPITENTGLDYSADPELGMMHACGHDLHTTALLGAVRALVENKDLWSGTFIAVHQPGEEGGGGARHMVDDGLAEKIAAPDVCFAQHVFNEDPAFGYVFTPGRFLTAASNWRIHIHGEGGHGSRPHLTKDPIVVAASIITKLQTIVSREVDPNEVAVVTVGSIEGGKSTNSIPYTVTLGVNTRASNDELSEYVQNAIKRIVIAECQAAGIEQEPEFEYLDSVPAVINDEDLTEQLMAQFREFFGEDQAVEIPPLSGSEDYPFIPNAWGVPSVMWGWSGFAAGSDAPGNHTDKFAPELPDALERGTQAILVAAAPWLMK

`CC(CCOC(=O)NC(CCC(N)=O)C(=O)O)CCc1ccccc1` [Compound 1, alpha-N-(3-Methyl-5-phenylpentanyloxycarbonyl)-L-glutamine]: where the note is “summary of Table 1”, the “Inhibition of Nα-acyl-glutamine-aminoacylase (in words)” value is “particularly good inhibitor”. In addition, under setting [1], the inhibition at 50 µM was 38.3%, the inhibition at 100 µM is 57% and the inhibition at 200 µM amounted to 64.4%. Under setting [2], the inhibition at 100 µM turned out to be 35.5%, the inhibition at 200 µM is 58.1% and the inhibition at 400 µM is 78.3%.

Take `C=CCCCCCCCCC(=O)NC(CCC(N)=O)C(=O)O` [Compound 2, alpha-N-(10-undecenoyl)-L-glutamine]: under setting [1], the inhibition at 50 µM stood at 0.9%, the inhibition at 100 µM was determined as 2.2% and the inhibition at 200 µM came to 15.6%. Further, under setting [2], the inhibition at 100 µM amounted to 0%, the inhibition at 200 µM was 2.1% and the inhibition at 400 µM stood at 24.2%.

For `CC1CCC(C(C)C)C(OC(=O)NC(CCC(N)=O)C(=O)O)C1` [Compound 3, alpha-N-(2-isopropyl-5-methylcyclohexanyloxycarbonyl)-L-glutamine], under setting [2], the inhibition at 100 µM is 7.4%, the inhibition at 200 µM is 16.5% and the inhibition at 400 µM was 33.9%. Also, under setting [1], the inhibition at 100 µM amounted to 19.3% and the inhibition at 200 µM is 27.2%.

Consider `CC(C)=CCCC(C)CCOC(=O)NC(CCC(N)=O)C(=O)O` [Compound 4, alpha-N-(3,7-dimethyl-oct-6-enyloxycarbonyl)-L-glutamine], for which, under setting [1], the inhibition at 50 µM stood at 15.9%, the inhibition at 100 µM amounted to 13.8% and the inhibition at 200 µM came to 34.6%. Also, under setting [2], the inhibition at 100 µM was -0.3%, the inhibition at 200 µM is 17.1% and the inhibition at 400 µM is 16.1%.

Turning to `CCCCOC(=O)N[C@@H](CCC(N)=O)C(=O)O` [Compound 5, alpha-N-Butyloxycarbonyl-L-glutamine], under setting [1], the inhibition at 50 µM worked out at 6.7%, the inhibition at 100 µM was 6.8% and the inhibition at 200 µM turned out to be 10.4%. Moreover, under setting [2], the inhibition at 100 µM amounted to 1.1%, the inhibition at 200 µM came to 0% and the inhibition at 400 µM was 0%.

Take `CC(C)(C)C1CCC(OC(=O)N[C@@H](CCC(N)=O)C(=O)O)CC1` (stereo partly drawn) [Compound 6, alpha-N-(4-tert-Butylcyclohexyloxycarbonyl)-L-glutamine]: under setting [1], the inhibition at 50 µM amounted to 11.3%, the inhibition at 100 µM is 14.3% and the inhibition at 200 µM is 21.2%. Besides, under setting [2], the inhibition at 100 µM came out at 4.9%, the inhibition at 200 µM is 14.8% and the inhibition at 400 µM is 28.5%.
